Data set [1] relates to HRP-Goat A'Mouse IgG. Put plainly: Enzymatic determination of protein binding to coated medium binding polystyrene plate. The following applies: coated medium binding PS; versus uncoated high binding polystyrene plate; absorbance 405 nm. An outline of the steps: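 Read-out of HRP-goat anti-mouse IgG (0.04 μg/ml in PBS pH 7.4) binding to surfactant-coated medium-binding polystyrene, 1 h at room temperature, then five washes. ABTS/H2O2 substrate for 15 min in the dark, stopped with 1% SDS, absorbance at 405 nm; reduction in binding relative to an untreated high-binding plate.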

Data set [2] concerns MDCK cells. The data set can be described thus: MDCK cell attachment to coated polystyrene 24-well plates. The class given is cell-based. The following applies: coated PS 24-well, gamma sterilized, media with 5% FBS, two days, visual. The procedure: The procedures used were as follows. Polystyrene 24-well plates were coated with the non-ionic surfactants listed in Table 5 in accordance with the procedures described in Materials and Methods. Uncoated plates were used as a control. For comparison, plates with a covalently attached acrylamide coating (Corning Costar Catalog #2500) and with a stearic acid coating were also tested. The stearic acid coating was applied in the same manner as the non-ionic surfactants again using a 0.1% (w/v) solution.
The plates were gamma sterilized at 1.5 Mrad and then inoculated with 5.6×10^4 MDCK […] per well in 1 ml of complete media containing 5% FBS (Fetal Bovine Serum). Incubation was carried out at 37° C. in a 5% CO2 atmosphere for two days. The plates were fixed and stained, and cell attachment was noted. Following this, the wells were stained using the colloidal gold technique to detect bound protein. Only visual observations were made.
Experiments were also performed with cells suspended in serum. The cells used in these experiments were MDCK cells. The surfactants used were the same as used in Table 5. Again, reduced binding of the cells to surfaces treated with a non-ionic surfactant was observed.

Data set [3] has as its system bound protein. Put plainly: Colloidal gold staining of bound protein after MDCK culture in media containing 5% FBS, visual. Conditions: colloidal gold after cell culture, visual observation. The procedure, abridged: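 Polystyrene wells coated with non-ionic surfactants, gamma-sterilized at 1.5 Mrad, seeded with 5.6×10^4 MDCK cells per well in medium with 5% FBS and cultured 2 days at 37 °C, 5% CO2. After fixing, bound protein detected by colloidal gold staining; visual assessment only.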

Data set [4] deals with BSA. Put plainly: Polymer blends molded into petri dishes, BSA binding by colloidal gold. The following applies: for BSA or FBS protein binding: blend in polypropylene or EVA.
Data set [5] deals with IgG. Put plainly: IgG/Au staining of coated polystyrene, type of endgroups. The procedure:
Except where indicated, the non-ionic surfactants were applied to the hydrophobic surfaces being tested as a 0.1% (weight/volume) solution in isopropanol. A sufficient amount of coating solution was used to cover the surface being testing with a thin layer of the solution (e.g., 25 μl of the solution per well for a standard 24-well plate). In some cases, the solution was applied to surface by spraying; in others, it was poured onto the surface (into the well). Except where indicated, coated samples were either dried at 70° C. for 30 minutes in an air circulated oven or dried at room temperature overnight to evaporate the isopropanol. Protein binding was determined in some examples using a colloidal gold straining procedure. In accordance with this procedure, colloidal gold becomes electrostatically attached to bound protein and is detected by measuring absorbance at 550 nanometers. Bio-Rad Laboratories' Colloidal Gold Total Protein Stain was used for this purpose, with absorbance being measured with a Cambridge Technologies Plate Reader (No. 7520). The non-ionic surfactants listed in Table 6 were tested for their ability to produce a low binding surface using the techniques described in Materials and Methods. Polystyrene was used as the hydrophobic test surface and IgG/Au staining was used as the readout.

In data set [6] the test system is rat. The following applies: cited from earlier work.
Data set [7] deals with IgG (horse). Put plainly: IgG binding to 24-well plates, surfactant dried or not dried before H2O rinse, colloidal Au. The following applies: 0.5% surfactant in H2O/isopropanol (90/10); for Absorbance (550 nm) Dried before H2O rinse: then rinsed 5x; for Absorbance (550 nm) H2O rinsed before drying: not dried, rinsed 5x immediately. As to the method: Duplicate 24-well plates were prepared as follows. Individual wells were filled with 3 ml of non-ionic surfactants at 0.5% (weight/volume) in H2O/isopropanol (90/10 weight/volume).
The duplicate plates were incubated for 30 minutes at room temperature on a rocker table and then emptied. One plate was tapped out and then allowed to dry at room temperature in a hood. It was then rinsed 5× with dI H2O. The second plate was not allowed to dry, but instead was immediately rinsed 5× with H2O. The plates were then tested for protein binding by filling each well with 0.5 ml of IgG (horse) at 10 μg/ml in PBS buffer and incubating for 30 minutes on a rocker table at room temperature. The plates were then rinsed with dI H2O and stained overnight with colloidal Au.

The test system of data set [8] is GAM-IgG-HRP (goat-anti-mouse-IgG-horseradish peroxidase enzyme labeled antibody). The data set can be described thus: Bound enzyme labeled antibody on strips exposed to aqueous surfactant, rinsed or not rinsed, ABTS readout. Conditions: 0.1% surfactant in H2O/isopropanol (95/5), not dried, rinsed 5x with dI H2O. The procedure:
Medium binding (catalog #2587) and high binding (catalog #2581) polystyrene 96-well plates (8-well strips) manufactured by Corning Costar were used as follows. […] Strips were incubated for 30 minutes at room temperature on a rocker table. Strips were then emptied and tapped out. […] Immediately following this procedure, each well was aliquoted 0.10 ml of GAM-IgG-HRP (goat-anti-mouse-IgG-horseradish peroxidase enzyme labeled antibody; Kirkegaard and Perry, Gaithersburg, Md., Catalog #074-1806) at 1.0 μg/ml in PBS buffer pH=7.4). Strips were incubated for one hour at room temperature on a rocker table. Strips were then rinsed 5× with PBS buffer containing 0.02% Tween-20 followed by post rinsing with H2O. […] Absorbance at 405 nm was measured on a Cambridge Technologies #7520 Plate Reader.

Setting [9] is: blended at 5% into polypropylene, silver enhancer.
Where [10] appears, read: blended at 1% into ethylene vinyl acetate.
Where [11] appears, read: blended at 5% into ethylene vinyl acetate, silver enhancer.

Where two headings read alike, the source gives them in different places.

As to PEO(4) SORBITOL MONO-STEARATE, in data set [1], the “% Reduction in Protein Binding” value is recorded as 99.5%. In data set [2], the “MDCK Attachment” value is given as “None”. The “Visual Color Upon Protein Staining” value in data set [3] is on record as “None”. In addition, the “Bound Protein Absorbance (550 nm) BSA” value in data set [4] (setting [9]) worked out at 0.016.
With SORBITOL MONO-OLEATE, the “% Reduction in Protein Binding” value in data set [1] is 92.7%. The “Bound Protein Absorbance at 550 nm” value in data set [5] amounted to 0.00. The “BSA or FBS protein binding” value in data set [4] is recorded as “no detectable”. For the same molecule, the figures for the “Bound Protein Absorbance (550 nm) BSA” value in data set [4] (setting [10]), in data set [4] (setting [11]) and in data set [4] (setting [9]) were 0.147, 0.000 and 0.000, respectively. Besides, in data set [6], the LD50 was over 39 grams/Kg.
As to `CCCCCCCCCCCCOCCOCCOCCOCCO` [PEO(4) LAURYL ETHER], the “% Reduction in Protein Binding” value in data set [1] amounted to 99.3%. Also, the “MDCK Attachment” value in data set [2] is recorded as “None”. Moreover, the “Visual Color Upon Protein Staining” value in data set [3] is listed as “None”. In data set [7], the “Absorbance (550 nm) Dried before H2O rinse” value is 0.08-0.10 and the “Absorbance (550 nm) H2O rinsed before drying” value is on record as 0.13-0.16. In addition, in data set [8], the “Absorbance (405 nm) High Binding Polystyrene Rinsed” value came out at 2.10 and the “Absorbance (405 nm) Medium Binding Polystyrene Rinsed” value is 1.90. Also, the LD50 in data set [6] (in vivo) is over 5 grams/Kg.
Turning to PEO(20) SORBITOL TRI-STEARATE, the “% Reduction in Protein Binding” value in data set [1] is 99.7%. The “MDCK Attachment” value in data set [2] was “None”. For the same molecule, in data set [3], the “Visual Color Upon Protein Staining” value is on record as “None”. For the same molecule, in data set [5], the “Bound Protein Absorbance at 550 nm” value was 0.00.
As for `CCCCCCCC/C=C\CCCCCCCCOCCOCCO` [PEO(2) OLEYL ETHER], the “% Reduction in Protein Binding” value in data set [1] is on record as 99.9%. For the same molecule, the “Visual Color Upon Protein Staining” value in data set [3] was “None”. Moreover, in data set [5], the “Bound Protein Absorbance at 550 nm” value stood at 0.00. Moreover, in data set [7], the “Absorbance (550 nm) Dried before H2O rinse” value came to 0.00. Moreover, the “Absorbance (550 nm) H2O rinsed before drying” value in data set [7] is 0.14-0.16. Also, the “Absorbance (405 nm) High Binding Polystyrene Rinsed” value in data set [8] is 2.10. Also, the “Absorbance (405 nm) Medium Binding Polystyrene Rinsed” value in data set [8] amounted to 1.90. The “BSA or FBS protein binding” value in data set [4] is listed as “no detectable”. Besides, the “Bound Protein Absorbance (550 nm) BSA” value was 0.000 in data set [4] (setting [10]), 0.000 in data set [4] (setting [11]), 0.000 in data set [4] (setting [9]) and 0.007 in data set [4] (blended at 5% into polystyrene).
